# Assay results as given in patent publication US20030096015A1, “Cytogenic/nucleogenic healing” (priority 1997, published 2003).
# Test system: multiple of infections (MOI)
structure (smiles),measurement,setting,value
"OC[C@H]1O[C@@](CO)(O[C@H]2O[C@H](CO)[C@@H](O)[C@H](O)[C@H]2O)[C@@H](O)[C@@H]1O [5% Sucrose, sucrose]",bacterial and viral growth / resistance to proteolysis by MOI,medium streaked with mixed MOI culture,bacterial activity and viral replication at exponential rate
same,Comparative Degree of Resistance,"resistance to proteolysis by MOI, ambient temperature (24° C.)",5.0 h
same,Relative Resistance,"resistance to proteolysis by MOI, ambient temperature (24° C.), 5% Sucrose = 1.0",1.0
